Measured values published in PMC7614720 (European journal of medicinal chemistry, 2021).

Key:
OXA-48 = OXA-48 (Klebsiella pneumoniae, UniProt Q6XEC0); experiment: 1H NMR of enzymatic hydrolysis products; format: biochemical
NDM-1 = NDM-1 (Klebsiella pneumoniae, UniProt C7C422); experiment: 1H NMR of enzymatic hydrolysis products; format: biochemical
Sequence of NDM-1 (C7C422 29-270, looked up): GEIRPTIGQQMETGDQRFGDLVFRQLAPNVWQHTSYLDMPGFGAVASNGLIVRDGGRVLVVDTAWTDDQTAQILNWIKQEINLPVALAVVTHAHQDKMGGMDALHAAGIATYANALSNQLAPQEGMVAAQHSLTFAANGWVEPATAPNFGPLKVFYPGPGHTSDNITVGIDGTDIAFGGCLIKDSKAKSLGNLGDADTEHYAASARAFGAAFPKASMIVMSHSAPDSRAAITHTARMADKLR

Sequence of OXA-48 (Q6XEC0 23-265 limits assumed): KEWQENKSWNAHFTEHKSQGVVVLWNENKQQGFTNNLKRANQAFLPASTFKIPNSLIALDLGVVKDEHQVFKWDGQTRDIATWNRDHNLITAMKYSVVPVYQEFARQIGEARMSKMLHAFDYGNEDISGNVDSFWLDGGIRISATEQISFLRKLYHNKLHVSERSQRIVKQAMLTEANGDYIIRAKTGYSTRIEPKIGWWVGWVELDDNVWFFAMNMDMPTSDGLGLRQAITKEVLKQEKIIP

For `C[C@@H](O)[C@H]1C(=O)N2C(C(=O)O)=C([C@H]3CCCO3)S[C@H]12` [faropenem], the “1H NMR of enzymatic hydrolysis products (5 μM enzyme, 55 min)” value (OXA-48) was “the class D SBLs OXA-10, OXA-23 and OXA-48 and the B1 MBLs NDM-1 and VIM-1” and the “1H NMR of enzymatic hydrolysis products (5 μM enzyme, 5 min)” value (NDM-1) was “we subsequently studied the reaction of faropenem with other SBLs/MBLs”.
